Values joined by “and” are separate entries in the source; they are usually repeats but may differ in a detail not shown here. Equal entries are not always repeated.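 Compound exposure: 48 hours, 5 concentrations, 96-well plates. GI50: concentration for 50% inhibition of growth. TGI denotes the concentration required for complete inhibition of growth.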
How the values were obtained:
Assay in all cases: DTP human tumour cell line panel, 48 h
ACHN renal = system: ACHN renal
CCRF-CEM leukemia = system: CCRF-CEM leukemia
HOP-92 NSCLC = system: HOP-92 NSCLC
KM12 colon = system: KM12 colon
LOX IMVI melanoma = system: LOX IMVI melanoma
OVCAR-8 ovarian = system: OVCAR-8 ovarian
RPMI-8226 leukemia = system: RPMI-8226 leukemia
SK-MEL-5 melanoma = system: SK-MEL-5 melanoma
SW-620 colon = system: SW-620 colon
UACC-257 melanoma = system: UACC-257 melanoma

Compound	GI50 (ACHN renal)	TGI (ACHN renal)	GI50 (CCRF-CEM leukemia)	TGI (CCRF-CEM leukemia)	GI50 (HOP-92 NSCLC)	TGI (HOP-92 NSCLC)	GI50 (KM12 colon)	TGI (KM12 colon)	GI50 (LOX IMVI melanoma)	TGI (LOX IMVI melanoma) [µM]	GI50 (OVCAR-8 ovarian)	TGI (OVCAR-8 ovarian)	GI50 (RPMI-8226 leukemia)	TGI (RPMI-8226 leukemia)	GI50 (SK-MEL-5 melanoma)	TGI (SK-MEL-5 melanoma)	GI50 (SW-620 colon)	TGI (SW-620 colon)	GI50 (UACC-257 melanoma)	TGI (UACC-257 melanoma)
CC(C)[O-].CC(C)[O-].CN(CCN(C)Cc1cc(F)cc(F)c1[O-])Cc1cc(F)cc(F)c1[O-].[Ti+4]	1 µM	8.34 µM	0.512 µM	> 35.1 µM	0.316 µM	1.18 µM	0.907 µM	2.95 µM	0.784 µM	3.88	1.09 µM	6.55 µM	0.882 µM	4.44 µM	0.467 µM	1.67 µM	0.828 µM	3.3 µM	1.15 µM	3.9 µM
CC(=Nc1ccc(S(N)(=O)=O)cc1)c1c(O)[nH]c2ccccc12	> 25 µM	> 25 µM	> 25 µM	> 25 µM	> 25 µM	> 25 µM	0.872 µM	> 25 µM	> 25 µM	> 25	> 25 µM	> 25 µM	> 25 µM	> 25 µM	> 25 µM	> 25 µM	> 18.5 µM	> 25 µM	> 25 µM	> 25 µM
COc1ccc(Nc2nccc(N3CCN(c4c5ccc(Cl)cc5nc5ccc(OC)cc45)CC3)n2)cc1	6.86 µM	> 100 µM	2.77 µM	> 100 µM	3.55 µM	77.1 µM	6.96 µM	> 100 µM	6.11 µM	> 100	6.53 µM	> 100 µM	3.73 µM	28.1 µM	16.1 µM	> 100 µM	7.19 µM	> 100 µM	> 100 µM	> 100 µM
O=C1/C(=C/c2ccc([N+](=O)[O-])cc2)COc2ccc(O)cc21	2.02 µM	4.12 µM	0.647 µM	3.29 µM	38.6 µM	> 100 µM	2.15 µM	5.25 µM	1.68 µM	3.23	5.88 µM	> 100 µM	0.326 µM	1.65 µM	12.1 µM	53.6 µM	1.5 µM	3.3 µM	32.1 µM	> 100 µM
CCNCCNc1cc(-c2ccc(C#N)cc2)c(C#N)c2nc3ccccc3n12	2.34 µM	5.73 µM	2.49 µM	9.9 µM	2.21 µM	4.5 µM	3.36 µM	12.2 µM	1.72 µM	3.29	5.15 µM	16.9 µM	4.78 µM	19.5 µM	2.28 µM	5.67 µM	2.68 µM	11.1 µM	3.72 µM	7.14 µM
COc1ccc(F)c(F)c1C(=O)c1cnc(NC2CCN(S(C)(=O)=O)CC2)nc1N	0.439 µM and 0.272 µM	> 100 µM	0.431 µM and 0.237 µM	> 8.34 µM	0.25 µM and 0.43 µM	3.46 µM and 5.53 µM	0.402 µM and 0.306 µM	> 29.8 µM	0.848 µM and 0.291 µM	> 100	1.18 µM and 0.58 µM	> 100 µM	0.791 µM and 0.353 µM	4.98 µM and 5.57 µM	0.369 µM and 0.399 µM	4.64 µM and > 7.12 µM	0.183 µM and 0.108 µM	> 100 µM	1.44 µM and 1.61 µM	6.38 µM and 8.94 µM
Cc1ccc(-n2nc(C(C)(C)C)cc2NC(=O)NCc2cc(F)ccc2Oc2ccc3c(cnn3CCO)c2)cc1	4.3 µM and 2.79 µM	> 56.2 µM	> 10 µM and 3.38 µM	> 69.7 µM	8.06 µM and 5.1 µM	> 10 µM and 95.2 µM	0.611 µM and 1.22 µM	> 35.8 µM	0.836 µM and 2.37 µM	> 38.1	> 10 µM and 8.96 µM	> 100 µM	3.28 µM and 2.7 µM	> 10 µM and 28.7 µM	2.39 µM and 3.15 µM	> 10 µM and 13.2 µM	> 10 µM and 6.34 µM	> 100 µM	1.19 µM and 2.32 µM	> 10 µM and 10.4 µM
COc1cc2nc(-c3ccc(C(F)(F)F)cc3)cc(OCCCN3CCCC3)c2cc1OC	0.754 µM	> 34.1 µM	1.08 µM	9.92 µM	0.351 µM	5.68 µM	1.73 µM	30.1 µM	0.116 µM	0.322	0.826 µM	> 49.7 µM	0.0786 µM	1.6 µM	0.51 µM	1.28 µM	2.59 µM	29.6 µM	1.37 µM	8.51 µM
CCOC(=O)c1c(SCCN2CCOCC2)n(-c2ccccc2)c(=S)n(-c2ccccc2)c1=O		> 100 µM		99 µM		> 100 µM		> 100 µM		33.3		> 100 µM		94.1 µM		90.1 µM		41.6 µM		48.1 µM
Cc1ccc(C)c(N2C(=O)C(=O)C(c3nc4ccccc4s3)C(=Nc3cccc4c(=O)[nH][nH]c(=O)c34)C2=O)c1 (stereo not given)		> 100 µM		> 100 µM		> 100 µM		> 100 µM		> 100		> 100 µM		> 100 µM		> 100 µM		> 100 µM		> 100 µM
O=c1[nH]c2cc([N+](=O)[O-])ccc2nc1/C(=N\Nc1ccccc1)C(O)c1ccc2c(c1)OCO2 (stereo not given)		> 100 µM		> 100 µM		42.7 µM		> 100 µM		> 100		> 100 µM		> 100 µM		> 100 µM		> 100 µM		> 100 µM
Cc1cccc(C)c1N1C(=O)C(=O)C(c2nc3ccccc3s2)C(=Nc2cccc3c(=O)[nH][nH]c(=O)c23)C1=O (stereo not given)		> 100 µM		> 100 µM		> 100 µM		> 100 µM		> 100		> 100 µM		> 100 µM		> 100 µM		> 100 µM		> 100 µM
Cc1cccc(N(CC(=O)O)S(=O)(=O)c2ccccc2)c1		> 100 µM		> 100 µM		> 100 µM		> 100 µM		> 100		> 100 µM		> 100 µM		> 100 µM		> 100 µM		> 100 µM
Cc1cc2c(cc1Cl)S/C(=C/C(=O)O)C(Nc1cccc3nsnc13)=NS2(=O)=O	> 52.3 µM	> 64.9 µM	22.5 µM	> 81.9 µM	28.2 µM	62 µM	50.6 µM	> 65.3 µM	53.4 µM	> 70.1	> 53.2 µM	> 74.8 µM	10.7 µM	40.6 µM	33.4 µM	> 58.5 µM	44.8 µM	> 67.6 µM	> 57.9 µM	> 70.7 µM
O=C(NCCN1CCNCC1)c1ccc(Nc2nc3ccccc3c3occc23)cc1	20.1 µM	36 µM	10.3 µM	28.5 µM	1.24 µM	15.8 µM	19 µM	40.6 µM	15.2 µM	33.1	23.2 µM	75.7 µM	18.7 µM	49.1 µM	3.39 µM	13.7 µM	3.6 µM	17.4 µM	17 µM	33.8 µM
COc1cccc(COc2cc(-n3cnc4ccccc43)sc2C(N)=O)c1	> 25 µM	> 25 µM	1.15 µM	> 25 µM	> 5.9 µM	> 25 µM	2.42 µM	> 25 µM	> 25 µM	> 25	11.9 µM	> 25 µM	> 25 µM	> 25 µM	> 19.4 µM	> 25 µM	> 11.1 µM	> 25 µM	> 25 µM	> 25 µM
C=CCNC(=O)N(CCC)CCCC(NC(C)=O)C(=O)NCc1ccccc1 (stereo not given)		> 100 µM		> 100 µM		> 100 µM		> 100 µM		> 100		> 100 µM		> 100 µM		> 100 µM		> 100 µM		> 100 µM
COc1ccc(-c2cnoc2-c2cc(OC)c3c(c2)OCCO3)cc1	0.108 µM	> 58.9 µM	0.0379 µM	> 100 µM	0.281 µM	41.7 µM	< 0.0162 µM	16 µM	0.0632 µM	22.5	0.0524 µM	> 59.1 µM	0.0477 µM	33 µM	0.0222 µM	0.592 µM	0.0302 µM	> 100 µM	11.5 µM	> 100 µM
COc1ccccc1NC(=O)/C(=C/c1ccccc1)C(C)=O		> 100 µM		> 100 µM		> 100 µM		> 100 µM		> 100		> 100 µM		> 100 µM		62 µM		> 100 µM		> 100 µM
O=C(Cl)C1=C(c2ccccc2)C1c1ccccc1 (stereo not given)		> 100 µM		> 100 µM		> 100 µM		> 100 µM		> 100		> 100 µM		> 100 µM		> 100 µM		> 100 µM		> 100 µM
CCOc1ccc(Nc2c3ccccc3nc3ccccc23)cc1	0.953 µM and 0.636 µM	3.83 µM and 2.15 µM	0.585 µM and 0.739 µM	> 31.7 µM and 3.26 µM	0.299 µM and 1.06 µM	3.16 µM and 9.42 µM	0.581 µM and 0.487 µM	9.39 µM and 4.52 µM	0.515 µM and 0.529 µM	2.98	0.54 µM and 0.592 µM	2.45 µM and 15 µM	1.07 µM and 0.364 µM	4.58 µM and 4.03 µM	0.343 µM and 0.371 µM	1.33 µM and 1.45 µM	0.369 µM and 0.339 µM	5.2 µM and 4.02 µM	0.552 µM and 0.888 µM	2.22 µM and 6.32 µM
N.N.N.N.N.O=S(=O)([O-])S(=O)(=O)[O-].[Co+3]	> 100 µM	> 100 µM	> 100 µM	> 100 µM	> 100 µM	> 100 µM	> 100 µM	> 100 µM	> 100 µM	> 100	> 100 µM	> 100 µM	> 100 µM	> 100 µM	> 100 µM	> 100 µM	> 100 µM	> 100 µM	> 100 µM	> 100 µM
Fc1ccc2nc(-c3cc(-c4ccc5c(c4)OCO5)n[nH]3)[nH]c2c1	2.74 µM	> 25.4 µM	2.62 µM	> 44.7 µM	1.87 µM	8.79 µM	2.49 µM	> 32 µM	2.18 µM	10.4	2.99 µM	16 µM	1.17 µM	8.26 µM	1.56 µM	3.14 µM	5.68 µM	> 43.1 µM	8.91 µM	> 100 µM
O=C1c2cccc3cccc(c23)C(=O)N1O		> 100 µM		> 100 µM		94.5 µM		> 100 µM		> 100		> 100 µM		> 100 µM		> 100 µM		> 100 µM		> 100 µM
O=[N+]([O-])c1ccc(-c2cc3c(Nc4ccc(Cl)c(C(F)(F)F)c4)ncnc3s2)cc1	2.42 µM	7.6 µM	1.29 µM	> 100 µM	0.963 µM	4.95 µM	1.42 µM	> 100 µM	1.62 µM	> 100	2.67 µM	> 100 µM	0.555 µM	2.81 µM	1.13 µM	2.58 µM	2.86 µM	> 100 µM	2.95 µM	> 26.8 µM
CC1c2ccccc2N=C2SC(=S)N3CCN=C3N21 (stereo not given)	> 100 µM	> 100 µM	> 100 µM	> 100 µM	> 100 µM	> 100 µM	> 100 µM	> 100 µM	> 100 µM	> 100	> 100 µM	> 100 µM	> 100 µM	> 100 µM	2.25 µM	35.8 µM	> 100 µM	> 100 µM	> 100 µM	> 100 µM
O=C1c2ccccc2-c2c1c1c(NCCCO)nc3ccccc3c1n2Cc1ccccc1	21.4 µM	59.4 µM	17.6 µM	45.9 µM	12.3 µM	27.6 µM	31.3 µM	> 100 µM	15.9 µM	30.9	35 µM	> 100 µM	14.3 µM	27.3 µM	31 µM	> 100 µM	27.4 µM	> 100 µM	41.3 µM	> 100 µM
CCCCCCCCCCCCCCCCCCOCC(COCCOCC[N+]1(CCCCCC(=O)[O-])CCCC1)Oc1ncccn1 (stereo not given)		23.7 µM		13.9 µM		5.93 µM		17.7 µM		13		15.9 µM		8.96 µM		15.2 µM		19.2 µM		22.7 µM
N#Cc1c(-c2ccco2)cc(-c2ccccc2)[nH]c1=O		> 100 µM		> 100 µM		> 100 µM		> 100 µM		> 100		> 100 µM		> 100 µM		> 100 µM		> 100 µM		> 100 µM

From PubChem BioAssay (NCI)
